From ChEMBL document CHEMBL5608199, “Quaternized antimicrobial peptide mimics based on harmane as potent anti-MRSA agents by multi-target mechanism covering cell wall, cell membrane and intracellular targets” (Eur J Med Chem, 2024) come the findings set out here.

Converted amounts (≈) assume the structure as drawn. The source made the active and inactive calls. A value given as a limit tells only on which side of the number the result lay.

One test relates to Escherichia coli. In words: Antibacterial activity against Escherichia coli ATCC 8739 incubated for 18 hrs by two fold serial broth dilution method. The test is classed as functional. On the technique in general: Dilution methods test growth across graded concentrations, often in twofold steps.
Test [1] relates to Staphylococcus aureus. In words: Antibacterial activity against Staphylococcus aureus CMCC 26003 incubated for 18 hrs by two fold serial broth dilution method. Format: functional.
Test [2] has as its system Staphylococcus aureus. In words: Antibacterial activity against methicillin-resistant Staphylococcus aureus ATCC 33591 incubated for 18 hrs by two fold serial broth dilution method. Format: functional.
Test [3] concerns Staphylococcus aureus. In words: Antibacterial activity against methicillin-resistant Staphylococcus aureus ATCC 43300 incubated for 18 hrs by two fold serial broth dilution method. The test is classed as functional.
For test [4], the system named is Staphylococcus aureus. The experiment in a line: Antibacterial activity against Staphylococcus aureus ATCC 29213 incubated for 18 hrs by two fold serial broth dilution method. The test is classed as functional.
Test [5] has as its system Staphylococcus aureus. The experiment in a line: Antibacterial activity against methicillin-resistant Staphylococcus aureus CGMCC 1.12409 incubated for 18 hrs by two fold serial broth dilution method. Format: functional.
Test [6] deals with Staphylococcus aureus. The experiment in a line: Drug resistance, ratio of MIC for methicillin-resistant Staphylococcus aureus ATCC 33591 after 10 passages to MIC for methicillin-resistant Staphylococcus aureus ATCC 33591 during first exposure. Format: functional.
The test system of test [7] is Staphylococcus aureus. In words: Drug resistance, ratio of MIC for methicillin-resistant Staphylococcus aureus ATCC 33591 after 9 passages to MIC for methicillin-resistant Staphylococcus aureus ATCC 33591 during first exposure. Format: functional.
In test [8] the test system is Staphylococcus aureus. In words: Drug resistance, ratio of MIC for methicillin-resistant Staphylococcus aureus ATCC 33591 after 12 passages to MIC for methicillin-resistant Staphylococcus aureus ATCC 33591 during first exposure. The test is classed as functional.
Test [9] has as its system Staphylococcus aureus. The experiment in a line: Antibacterial activity against methicillin-resistant Staphylococcus aureus ATCC 33591 infected in cyclophosphamide treated female KM mouse skin infection model assessed as reduction in inflammatory cell infiltration at 3.3 mg/kg administered for 4 days and measured on day 5 by H and E staining based analysis. The test is classed as functional, organism-based. The following applies: time 5.0 day.

Test [10] has as its system Staphylococcus aureus. The experiment in a line: Antibacterial activity against methicillin-resistant Staphylococcus aureus ATCC 33591 infected in cyclophosphamide treated female KM mouse skin infection model assessed as reduction in number of bacterial clones in skin at 3.3 mg/kg administered for 4 days and measured on day 5. Format: functional, organism-based. The following applies: time 5.0 day.

By MIC is commonly meant the smallest concentration in the dilution series that meets the test's criterion for growth inhibition.

In the case of `Cc1nccc2c3ccccc3n(CCCCCn3c4ccccc4c4ccnc(C)c43)c12`, the MIC with Escherichia coli, with Staphylococcus aureus [1], against Staphylococcus aureus [2], with Staphylococcus aureus [3], in the test on Staphylococcus aureus [4] and with Staphylococcus aureus [5] was > 128 µg/mL in each case.

Take `Cc1nccc2c3ccccc3n(CCCCCCCn3c4ccccc4c4ccnc(C)c43)c12`: the MIC in the test with Escherichia coli, with Staphylococcus aureus [1], against Staphylococcus aureus [2], in the test with Staphylococcus aureus [3], with Staphylococcus aureus [4] and with Staphylococcus aureus [5] was > 128 µg/mL in each case.

In the case of `CCC[n+]1ccc2c3ccccc3n(CCN(CC)CC)c2c1C.[Br-]`, the MIC against Escherichia coli was > 128 µg/mL; in the test with Staphylococcus aureus [1], 64 µg/mL; in the test on Staphylococcus aureus [2], 128 µg/mL; with Staphylococcus aureus [3], > 128 µg/mL; in the test with Staphylococcus aureus [4], > 128 µg/mL; in the test with Staphylococcus aureus [5], > 128 µg/mL.

For the compound `CCCC[n+]1ccc2c3ccccc3n(CCN(CC)CC)c2c1C.[Br-]`, the MIC with Escherichia coli was > 128 µg/mL; against Staphylococcus aureus [1], 64 µg/mL; in the test on Staphylococcus aureus [2], 64 µg/mL; against Staphylococcus aureus [3] it was 128 µg/mL; against Staphylococcus aureus [4], > 128 µg/mL; against Staphylococcus aureus [5] it was 64 µg/mL.

Turning to `[2H]C([2H])([2H])[n+]1ccc2c([nH]c3ccccc32)c1C.[I-]`, the minimum inhibitory concentration (MIC) in the test with Escherichia coli, against Staphylococcus aureus [1], against Staphylococcus aureus [2], with Staphylococcus aureus [3], against Staphylococcus aureus [4] and against Staphylococcus aureus [5] was > 128 µg/mL in each case.

Regarding `CCCCC[n+]1ccc2c3ccccc3n(CC[N+](C)(C)CCCCC)c2c1C.[Br-].[Br-]`, the MIC against Escherichia coli, in the test with Staphylococcus aureus [1], against Staphylococcus aureus [2], with Staphylococcus aureus [3], against Staphylococcus aureus [4] and against Staphylococcus aureus [5] was > 128 µg/mL each time.

In the case of `Cc1c2c(cc[n+]1C)c1ccccc1n2CCCCCCCn1c2ccccc2c2cc[n+](C)c(C)c21.[I-].[I-]`, the MIC with Escherichia coli came to 16 µg/mL; against Staphylococcus aureus [1], 0.5 µg/mL; against Staphylococcus aureus [2] it was 0.5 µg/mL; against Staphylococcus aureus [3] it was 2 µg/mL; with Staphylococcus aureus [4], 8 µg/mL; against Staphylococcus aureus [5] it was 1 µg/mL.

For `CCN(CC)CCn1c2ccccc2c2ccnc(C)c21`, the MIC was 128 µg/mL (≈ 455 µM) in the test with Escherichia coli; 128 µg/mL (≈ 455 µM) against Staphylococcus aureus [1]; 128 µg/mL (≈ 455 µM) in the test on Staphylococcus aureus [2]; 128 µg/mL (≈ 455 µM) against Staphylococcus aureus [3]; 128 µg/mL (≈ 455 µM) in the test on Staphylococcus aureus [4]; > 128 µg/mL with Staphylococcus aureus [5].

On to `CCC[n+]1ccc2c3ccccc3n(CC[N+](C)(C)CCC)c2c1C.[Br-].[Br-]`, for which the MIC against Escherichia coli, against Staphylococcus aureus [1], in the test on Staphylococcus aureus [2], in the test with Staphylococcus aureus [3], against Staphylococcus aureus [4] and against Staphylococcus aureus [5] was > 128 µg/mL throughout.

Turning to `Cc1nccc2c3ccccc3n(CCCCn3c4ccccc4c4ccnc(C)c43)c12`, the MIC against Escherichia coli, against Staphylococcus aureus [1], in the test with Staphylococcus aureus [2], in the test with Staphylococcus aureus [3], with Staphylococcus aureus [4] and with Staphylococcus aureus [5] was > 128 µg/mL throughout.

Turning to `[2H]C([2H])([2H])[n+]1ccc2c3ccccc3n(CC[N+](C)(C)C([2H])([2H])[2H])c2c1C.[I-].[I-]`, the MIC against Escherichia coli, in the test with Staphylococcus aureus [1], in the test with Staphylococcus aureus [2], against Staphylococcus aureus [3], in the test on Staphylococcus aureus [4] and in the test with Staphylococcus aureus [5] was > 128 µg/mL each time.

As for `CC[n+]1ccc2c3ccccc3n(CC[N+](C)(C)CC)c2c1C.[Br-].[Br-]`, the MIC with Escherichia coli, in the test with Staphylococcus aureus [1], with Staphylococcus aureus [2], in the test with Staphylococcus aureus [3], against Staphylococcus aureus [4] and in the test on Staphylococcus aureus [5] was > 128 µg/mL throughout.

As to `CCn1cc(C(=O)O)c(=O)c2cc(F)c(N3CCNCC3)cc21` [NORFLOXACIN], the Ratio in the test on Staphylococcus aureus [6] is given as >16; in the test on Staphylococcus aureus [7], 16; in the test on Staphylococcus aureus [8], 2.

Regarding `CCCCC[n+]1ccc2c3ccccc3n(CCN(CC)CC)c2c1C.[Br-]`, the MIC in the test with Escherichia coli was determined as 128 µg/mL; against Staphylococcus aureus [1], 16 µg/mL; in the test with Staphylococcus aureus [2], 32 µg/mL; against Staphylococcus aureus [3] it was 32 µg/mL; with Staphylococcus aureus [4], 64 µg/mL; against Staphylococcus aureus [5], 64 µg/mL.

For `Cc1c2[nH]c3ccccc3c2cc[n+]1C.[I-]`, the MIC in the test with Escherichia coli, with Staphylococcus aureus [1], against Staphylococcus aureus [2], in the test on Staphylococcus aureus [3], with Staphylococcus aureus [4] and against Staphylococcus aureus [5] was > 128 µg/mL each time.

Turning to `CC[N+](C)(CC)CCn1c2ccccc2c2cc[n+](C)c(C)c21.[I-].[I-]`, the MIC in the test with Escherichia coli, in the test on Staphylococcus aureus [1], in the test with Staphylococcus aureus [2], in the test with Staphylococcus aureus [3], in the test with Staphylococcus aureus [4] and against Staphylococcus aureus [5] was > 128 µg/mL each time.

In the case of `Cc1nccc2c3ccccc3n(CCCCCCCCn3c4ccccc4c4ccnc(C)c43)c12`, the minimal inhibitory concentration (MIC) against Escherichia coli, in the test with Staphylococcus aureus [1], with Staphylococcus aureus [2], against Staphylococcus aureus [3], with Staphylococcus aureus [4] and in the test on Staphylococcus aureus [5] was > 128 µg/mL each time.

For the compound `Cc1c2c(cc[n+]1C)c1ccccc1n2CC[N+](C)(C)C.[I-].[I-]`, the MIC in the test with Escherichia coli, in the test with Staphylococcus aureus [1], in the test on Staphylococcus aureus [2], against Staphylococcus aureus [3], in the test with Staphylococcus aureus [4] and in the test on Staphylococcus aureus [5] was > 128 µg/mL each time.

As to `CC[n+]1ccc2c3ccccc3n(CC[N+](CC)(CC)CC)c2c1C.[Br-].[Br-]`, the MIC against Escherichia coli, against Staphylococcus aureus [1], in the test on Staphylococcus aureus [2], against Staphylococcus aureus [3], against Staphylococcus aureus [4] and against Staphylococcus aureus [5] was > 128 µg/mL throughout.

As for `CN[C@H](CC(C)C)C(=O)N[C@H]1C(=O)N[C@@H](CC(N)=O)C(=O)N[C@H]2C(=O)N[C@H]3C(=O)N[C@H](C(=O)N[C@H](C(=O)O)c4cc(O)cc(O)c4-c4cc3ccc4O)[C@H](O)c3ccc(c(Cl)c3)Oc3cc2cc(c3O[C@@H]2O[C@H](CO)[C@@H](O)[C@H](O)[C@H]2O[C@H]2C[C@](C)(N)[C@H](O)[C@H](C)O2)Oc2ccc(cc2Cl)[C@H]1O` [VANCOMYCIN], the MIC in the test with Escherichia coli was > 128 µg/mL; in the test with Staphylococcus aureus [1], 0.25 µg/mL (≈ 0.173 µM). Besides, the outcome with Staphylococcus aureus [9] and in the test with Staphylococcus aureus [10] was Active.

As for `CCCC[n+]1ccc2c3ccccc3n(CCN(C)C)c2c1C.[Br-]`, the MIC against Escherichia coli was > 128 µg/mL; with Staphylococcus aureus [1], 128 µg/mL; in the test on Staphylococcus aureus [2] it was 128 µg/mL; against Staphylococcus aureus [3], > 128 µg/mL; against Staphylococcus aureus [4], > 128 µg/mL; against Staphylococcus aureus [5], > 128 µg/mL.

For the compound `[2H]C([2H])([2H])[n+]1ccc2c3ccccc3n(CC[N+](CC)(CC)C([2H])([2H])[2H])c2c1C.[I-].[I-]`, the MIC against Escherichia coli, in the test with Staphylococcus aureus [1], in the test with Staphylococcus aureus [2], with Staphylococcus aureus [3], in the test on Staphylococcus aureus [4] and with Staphylococcus aureus [5] was > 128 µg/mL in each case.

For `Cc1nccc2c3ccccc3n(CCN(C)C)c12`, the MIC is 64 µg/mL (≈ 253 µM) against Escherichia coli; > 128 µg/mL with Staphylococcus aureus [1]; > 128 µg/mL in the test on Staphylococcus aureus [2]; > 128 µg/mL with Staphylococcus aureus [3]; > 128 µg/mL in the test on Staphylococcus aureus [4]; > 128 µg/mL against Staphylococcus aureus [5].

As for `Cc1nccc2c3ccccc3n(CCCCCCn3c4ccccc4c4ccnc(C)c43)c12`, the MIC with Escherichia coli, in the test with Staphylococcus aureus [1], in the test with Staphylococcus aureus [2], with Staphylococcus aureus [3], in the test with Staphylococcus aureus [4] and against Staphylococcus aureus [5] was > 128 µg/mL each time.

As to `CCCC[n+]1ccc2c3ccccc3n(CC[N+](C)(C)CCCC)c2c1C.[Br-].[Br-]`, the MIC is > 128 µg/mL in the test on Escherichia coli; 128 µg/mL with Staphylococcus aureus [1]; 128 µg/mL against Staphylococcus aureus [2]; > 128 µg/mL against Staphylococcus aureus [3]; > 128 µg/mL in the test on Staphylococcus aureus [4]; > 128 µg/mL in the test on Staphylococcus aureus [5].
